The record followed here is PubChem BioAssay AID1918947 (Molecular Pharmacology Branch, DTP, NCI, 2023).

A word on the IC50: it is the concentration needed to halve the response being measured. In general, viability, T/C refers to the ratio of treated to control.

The structures appear in SMILES notation. Values joined by “and” are separate entries in the source; they are usually repeats but may differ in a detail not shown here. Equal values may be shown once. Bounds are passed on as bounds.

This assay relates to A498 complex spheroid viability. The assay is described as follows: Anticancer human tumor A498 cell line growth inhibition.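 On all read-outs here: spheroids exposed to agents for seven days before readout.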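 On viability, T/C: 100% = DMSO vehicle-treated spheroids.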 To be noted: for viability, T/C: stronger effect = lower value. The procedure, abridged:
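Multicellular complex spheroids of tumor cells with human endothelial cells (HUVEC) and mesenchymal stem cells; the LSD1 inhibitor iadademstat was combined with standard-of-care or investigational agents. Top concentration at or near clinical Cmax, half-log dilutions; final DMSO ≤0.25%.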

The mark [1] stands for this setting: curve of first compound, second compound 0.1 µM.
Where [2] appears, read: curve of first compound, second compound 0.316 µM.
The mark [3] stands for this setting: curve of first compound, second compound 1 µM.
Where [4] appears, read: curve of first compound, second compound 3.16 µM.
[5] abbreviates: curve of first compound, second compound 10 µM.
Where [6] appears, read: second compound 0.1 µM, first compound 0.00949 µM.
Setting [7] is: second compound 0.1 µM, first compound 0.03 µM.
[8] abbreviates: second compound 0.1 µM, first compound 0.0949 µM.
The mark [9] stands for this setting: second compound 0.1 µM, first compound 0.3 µM.
[10] abbreviates: second compound 0.1 µM, first compound 0.949 µM.
Setting [11] is: second compound 0.1 µM, first compound 3 µM.
Where [12] appears, read: second compound 0.316 µM, first compound 0.00949 µM.
[13] abbreviates: second compound 0.316 µM, first compound 0.03 µM.
Setting [14] is: second compound 0.316 µM, first compound 0.0949 µM.
Setting [15] is: second compound 0.316 µM, first compound 0.3 µM.
[16] abbreviates: second compound 0.316 µM, first compound 0.949 µM.
[17] abbreviates: second compound 0.316 µM, first compound 3 µM.
Setting [18] is: second compound 1 µM, first compound 0.00949 µM.
Where [19] appears, read: second compound 1 µM, first compound 0.03 µM.
[20] abbreviates: second compound 1 µM, first compound 0.0949 µM.
The mark [21] stands for this setting: second compound 1 µM, first compound 0.3 µM.
[22] abbreviates: second compound 1 µM, first compound 0.949 µM.
The mark [23] stands for this setting: second compound 1 µM, first compound 3 µM.
[24] abbreviates: second compound 3.16 µM, first compound 0.00949 µM.
[25] abbreviates: second compound 3.16 µM, first compound 0.03 µM.
The mark [26] stands for this setting: second compound 3.16 µM, first compound 0.0949 µM.
Setting [27] is: second compound 3.16 µM, first compound 0.3 µM.
Setting [28] is: second compound 3.16 µM, first compound 0.949 µM.
Setting [29] is: second compound 3.16 µM, first compound 3 µM.
[30] abbreviates: second compound 10 µM, first compound 0.00949 µM.
[31] abbreviates: second compound 10 µM, first compound 0.03 µM.
[32] abbreviates: second compound 10 µM, first compound 0.0949 µM.
[33] abbreviates: second compound 10 µM, first compound 0.3 µM.
The mark [34] stands for this setting: second compound 10 µM, first compound 0.949 µM.
Setting [35] is: second compound 10 µM, first compound 3 µM.

On to `NS(=O)(=O)OCC1CC(n2ccc3c(NC4CCc5ccccc54)ncnc32)CC1O` (centres undefined) + NC1CC1c1ccc(-c2cccc(O)c2)cc1, for which the IC50 was found to be 57.2 nM under setting [1]; 71 nM under setting [2]; 78.6 nM under setting [3]; 76.4 nM under setting [4]; 46.3 nM under setting [5]. The viability, T/C runs as follows: under setting [6], 99%; under setting [7], 70.4%; under setting [8], 32.4%; under setting [9], 23.4%; under setting [10], 15.9%; under setting [11], 12.4%. For the same compound, the viability, T/C reads like this: under setting [12], 100%; under setting [13], 78.5%; under setting [14], 39.6%; under setting [15], 21.4%; under setting [16], 15.6%; under setting [17], 12%. The viability, T/C by setting is: under setting [18], 96.2%; under setting [19], 83.2%; under setting [20], 41.1%; under setting [21], 25.9%; under setting [22], 16.1%; under setting [23], 12.8%. Also, the viability, T/C by setting is: under setting [24], 101%; under setting [25], 73.7%; under setting [26], 43.5%; under setting [27], 27.7%; under setting [28], 19%; under setting [29], 14.9%. Besides, the viability, T/C by setting is: under setting [30], 90.8%; under setting [31], 53.2%; under setting [32], 40.3%; under setting [33], 29.9%; under setting [34], 18.4%; under setting [35], 15%.

For `O=C(C=Cc1cccc(S(=O)(=O)Nc2ccccc2)c1)NO` + NC1CC1c1ccc(-c2cccc(O)c2)cc1, the IC50 was found to be 352 nM under setting [1]; 398 nM under setting [2]; 325 nM under setting [3]; 364 nM under setting [4]; 343 nM under setting [5]. For the same compound, the viability, T/C runs as follows: under setting [6], 105%; under setting [7], 90.2%; under setting [8], 78.6%; under setting [9], 49%; under setting [10], 32.4%; under setting [11], 7.4%. The viability, T/C under setting [12] is 105%; the viability, T/C under setting [13] was 93.2%; the viability, T/C under setting [14] is 76.9%; the viability, T/C under setting [15] is 53.3%; the viability, T/C under setting [16] was 34.3%; the viability, T/C under setting [17] is 7.34%. Also, the viability, T/C reads like this: under setting [18], 98.4%; under setting [19], 88.3%; under setting [20], 76.8%; under setting [21], 49.3%; under setting [22], 28.4%; under setting [23], 6.7%. The viability, T/C was 93.9% under setting [24]; 84.4% under setting [25]; 66.6% under setting [26]; 52.2% under setting [27]; 37.6% under setting [28]; 5.52% under setting [29]. Also, the viability, T/C by setting is: under setting [30], 93.2%; under setting [31], 81.3%; under setting [32], 66.7%; under setting [33], 55.5%; under setting [34], 30.7%; under setting [35], 5.21%.

For `NS(=O)(=O)OCC1CC(n2ccc3c(NC4CCc5ccccc54)ncnc32)CC1O` (centres undefined), the viability, T/C (compound 0.00949 µM) is 81% and 90.7%; the viability, T/C (compound 0.03 µM) was 57.2% and 60.5%; the viability, T/C (compound 0.0949 µM) was 27.1% and 30.7%; the viability, T/C (compound 0.3 µM) was 18.4% and 21.2%; the viability, T/C (compound 0.949 µM) is 12.2% and 15.6%; the viability, T/C (compound 3 µM) was 9.37% and 11.7%. For the same compound, the IC50 (curve of compound) is 39.2 nM and 45.3 nM.

For the compound `CC1COCCN1c1cc(-c2ccnn2C)c2ccnc(-c3ccn[nH]3)c2n1` (centres undefined), the viability, T/C reads like this: (compound 0.00316 µM) 103% and 100%; (compound 0.01 µM) 82% and 81.8%; (compound 0.0316 µM) 36.7% and 37.3%; (compound 0.1 µM) 18.8% and 22.5%; (compound 0.316 µM) 14.9% and 16.1%; (compound 1 µM) 11.2% and 10.8%. In addition, the IC50 (curve of compound) is 22.8 nM and 23.4 nM.

In the case of `COc1cc(C2c3cc4c(cc3C(OC3OC5COC(C)OC5C(O)C3O)C3COC(=O)C23)OCO4)cc(OC)c1O` (centres undefined) + NC1CC1c1ccc(-c2cccc(O)c2)cc1, the IC50 is 1800 nM under setting [1]; over 3000 nM under setting [2]; 1110 nM under setting [3]; 296 nM under setting [4]; 523 nM under setting [5]. Moreover, the viability, T/C is 75.3% under setting [6]; 68.7% under setting [7]; 62.1% under setting [8]; 62.8% under setting [9]; 58.2% under setting [10]; 44.4% under setting [11]. Also, the viability, T/C runs as follows: under setting [12], 87.3%; under setting [13], 74.7%; under setting [14], 68.7%; under setting [15], 58.6%; under setting [16], 55.6%; under setting [17], 51.3%. Moreover, the viability, T/C by setting is: under setting [18], 76.7%; under setting [19], 63%; under setting [20], 59.9%; under setting [21], 49.8%; under setting [22], 54.1%; under setting [23], 46.5%. Further, the viability, T/C is 66.4% under setting [24]; 53.6% under setting [25]; 55.9% under setting [26]; 52.2% under setting [27]; 46.1% under setting [28]; 42.9% under setting [29]. In addition, the viability, T/C under setting [30] is 63.5%; the viability, T/C under setting [31] was 61.1%; the viability, T/C under setting [32] was 57.5%; the viability, T/C under setting [33] is 51.7%; the viability, T/C under setting [34] is 47.4%; the viability, T/C under setting [35] is 41.7%.
